Source: PMC6017090, “Design, Synthesis and Biological Evaluation of Novel N-Pyridyl-Hydrazone Derivatives as Potential Monoamine Oxidase (MAO) Inhibitors” (Molecules : A Journal of Synthetic Chemistry and Natural …, 2018)

Columns and labels:
[1] = target: T1, human recombinant MAO-B (Homo sapiens, UniProt P27338); assay: MAO activity assay (fluorometric, kynuramine substrate), MAO-B; assay type: biochemical; details: ± S.D.; for inhibition at 1000 µM: 10^−3 M; for inhibition at 100 µM: 10^−4 M
T1 construct: purchased Sigma-Aldrich
T1 sequence (P27338 1-520): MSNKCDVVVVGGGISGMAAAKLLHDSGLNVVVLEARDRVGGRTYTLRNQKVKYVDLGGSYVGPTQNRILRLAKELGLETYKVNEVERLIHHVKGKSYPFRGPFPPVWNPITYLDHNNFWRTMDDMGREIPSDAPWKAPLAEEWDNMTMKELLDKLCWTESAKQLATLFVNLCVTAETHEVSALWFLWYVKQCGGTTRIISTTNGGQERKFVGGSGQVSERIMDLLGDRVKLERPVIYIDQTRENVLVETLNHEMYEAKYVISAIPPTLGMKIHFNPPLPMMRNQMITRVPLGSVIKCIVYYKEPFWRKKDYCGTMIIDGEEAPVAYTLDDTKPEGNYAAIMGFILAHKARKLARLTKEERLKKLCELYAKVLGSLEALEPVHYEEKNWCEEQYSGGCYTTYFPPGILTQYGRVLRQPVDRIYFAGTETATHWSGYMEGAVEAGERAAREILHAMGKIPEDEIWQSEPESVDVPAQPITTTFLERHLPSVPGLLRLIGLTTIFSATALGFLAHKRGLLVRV
Procedure: (§1) The enzyme activity assay was performed in accordance with the procedure reported by Matsumoto et al. with slight modifications. All materials used in the enzymatic assays were purchased from Sigma-Aldrich Chemicals. All pipetting protocols in the assay were performed by the Biotek Precision robotic system (BioTek Instruments, Inc., Winooski, VT, USA). To prevent the effect of light MAO enzymes, the assay was performed in 96-well black plates. Phosphate buffer (0.1 M, pH = 7.4) was used for the preparation of 5 mg/mL stock solutions of the human recombinant MAO-A and MAO-B enzymes. The enzyme stock solutions were further diluted with an assay buffer to obtain final concentrations of 0.006 mg/mL MAO-A and 0.015 mg/mL MAO-B. Kynuramine was dissolved in sterilized distilled water to obtain a 25 mM stock solution and then diluted with the assay buffer to obtain final concentrations of 40 μM for the MAO-A enzyme and 20 μM for the MAO-B enzyme. […] The addition of the diluted compounds was followed by the addition of either the MAO-A or MAO-B enzymes (50 μL/well). […] Fluorescence was read from top by using BioTek-Synergy H1 multimode microplate reader at the excitation/emission wavelengths of 310 and 380 nm.
(§2) The IC50 values (Table 2) were calculated from the plots of enzyme activity against concentrations, and the regression analyses were computed in GraphPad Prism Version 6 (GraphPad Software, Inc., La Jolla, CA, USA).

[2] = target: T2, MAO-A enzyme (Homo sapiens, UniProt P21397); assay: MAO activity assay (fluorometric, kynuramine substrate), MAO-A; assay type: biochemical; details: for inhibition at 1000 µM: 10^−3 M; for inhibition at 1000 µM / inhibition at 100 µM: ± S.D.; for inhibition at 100 µM: 10^−4 M; for inhibition at 10 µM: 10^−5 M; for inhibition at 1 µM: 10^−6 M; for inhibition at 0.1 µM: 10^−7 M; for inhibition at 0.01 µM: 10^−8 M; for inhibition at 0.001 µM: 10^−9 M
T2 construct: purchased Sigma-Aldrich
T2 sequence (P21397 1-527): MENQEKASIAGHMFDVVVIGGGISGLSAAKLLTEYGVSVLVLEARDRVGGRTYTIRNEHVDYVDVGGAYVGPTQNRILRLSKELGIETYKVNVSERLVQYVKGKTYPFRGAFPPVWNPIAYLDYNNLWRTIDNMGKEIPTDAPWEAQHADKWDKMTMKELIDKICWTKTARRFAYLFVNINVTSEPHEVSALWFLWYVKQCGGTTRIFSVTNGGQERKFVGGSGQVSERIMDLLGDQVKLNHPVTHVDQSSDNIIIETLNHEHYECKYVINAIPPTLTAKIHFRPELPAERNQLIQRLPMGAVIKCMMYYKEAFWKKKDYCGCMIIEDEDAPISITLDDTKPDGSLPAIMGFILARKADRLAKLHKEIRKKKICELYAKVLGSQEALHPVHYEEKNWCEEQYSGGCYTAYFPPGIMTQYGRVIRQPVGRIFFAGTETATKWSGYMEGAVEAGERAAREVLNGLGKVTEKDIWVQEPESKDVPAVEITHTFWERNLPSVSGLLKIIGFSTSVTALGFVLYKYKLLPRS
Procedure: as §1, with “Phosphate buffer (0.1 M, pH = 7.4) was used for the preparation of 5 mg/mL stock solutions of the human recombinant MAO-A and MAO-B enzymes.” left out
as §2

[3] = Cytotoxicity test (MTT assay); details: mouse, NIH/3T3 mouse embryonic fibroblast cells (ATCC CRL-1658)
Procedure: The MTT assay was performed as previously described [21, 22, 23, 24, 25, 26].

inhibition at 1000 µM [1] [%] | inhibition at 100 µM [1] [%] | IC50 [2] [µM] | inhibition at 1000 µM [2] [%] | inhibition at 100 µM [2] [%] | inhibition at 10 µM [2] [%] | inhibition at 1 µM [2] [%] | inhibition at 0.1 µM [2] [%] | inhibition at 0.01 µM [2] [%] | inhibition at 0.001 µM [2] [%] | melting point [°C] | Structure (SMILES) | IC50 [3] [µM]
40.9 ± 1.02 | 39.7 ± 1.15 | 6.12 | 76.6 ± 1.38 | 66.1 ± 1.47 | 54.7 ± 1.2 | 36.6 ± 1.08 | 33.2 ± 0.92 | 25.2 ± 0.88 | 23 ± 0.89 | 163 | CCOc1ccc([N+](=O)[O-])c(NN=Cc2cccn2C)n1 [Compound 2k, 6-Ethoxy-2-[2-((1-methyl-1H-pyrrol-2-yl)methylene)hydrazinyl]-3-nitropyridine] | > 1000
51 ± 1.08 | 43 ± 1.06 | 10.6 | 67.8 ± 1.44 | 64.4 ± 1.3 | 43 ± 1.02 | 31 ± 0.98 | 27.2 ± 0.89 | 19.8 ± 0.41 | 17.88 ± 0.17 | 155 | CCOc1ccc([N+](=O)[O-])c(NN=Cc2ccco2)n1 [Compound 2l, 6-Ethoxy-2-[2-((furan-2-yl)methylene)hydrazinyl]-3-nitropyridine] | > 1000
0.76 ± 0.03 | 0.58 ± 0.01 |  | 25.6 ± 0.88 | 17.9 ± 0.68 |  |  |  |  |  | 168 | CCOc1ccc([N+](=O)[O-])c(NN=Cc2ccccc2)n1 [Compound 2a, 2-(2-Benzylidenehydrazinyl)-6-ethoxy-3-nitropyridine] | 
0.67 ± 0.03 | 0.27 ± 0.01 |  | 25.9 ± 0.87 | 14.4 ± 0.54 |  |  |  |  |  | 267 | CCOc1ccc([N+](=O)[O-])c(NN=Cc2ccc(C#N)cc2)n1 [Compound 2g, 6-Ethoxy-2-[2-(4-cyanobenzylidene)hydrazinyl]-3-nitropyridine] | 
33.1 ± 1.14 | 0.22 ± 0.008 |  | 55.6 ± 1.05 | 14 ± 0.41 |  |  |  |  |  | 175 | CCOc1ccc([N+](=O)[O-])c(NN=Cc2ccc(OC)cc2)n1 [Compound 2e, 6-Ethoxy-2-[2-(4-methoxybenzylidene)hydrazinyl]-3-nitropyridine] | 
86.3 ± 1.25 | 3.52 ± 0.15 |  | 80.8 ± 1.31 | 16.9 ± 0.49 |  |  |  |  |  | 192 | CCOc1ccc([N+](=O)[O-])c(NN=Cc2ccc(N(C)C)cc2)n1 [Compound 2h, 6-Ethoxy-2-[2-(4-dimethylaminobenzylidene)hydrazinyl]-3-nitropyridine] | 

Structure (SMILES) | inhibition at 1000 µM [1] [%] | inhibition at 100 µM [1] [%] | IC50 [2] [µM] | inhibition at 1000 µM [2] [%] | inhibition at 100 µM [2] [%] | inhibition at 10 µM [2] [%] | inhibition at 1 µM [2] [%] | inhibition at 0.1 µM [2] [%] | inhibition at 0.01 µM [2] [%] | inhibition at 0.001 µM [2] [%] | melting point [°C] | IC50 [3] [µM]
O=C(NCCN1CCOCC1)c1ccc(Cl)cc1 [Moclobemide, moclobemide, reference compound] |  |  |  |  |  | 60.5 ± 2.55 | 36.1 ± 1.98 | 22.1 ± 1.33 | 18.2 ± 0.81 | 14.1 ± 0.72 |  | 
